Reference: paper PMC6981454, “Promising 2,6,9-Trisubstituted Purine Derivatives for Anticancer Compounds: Synthesis, 3D-QSAR, and Preliminary Biological Assays” (International Journal of Molecular Sciences, 2019)
Read-outs that look alike come from different tables or passages of the source.

Assays:
MRC-5 = assay: MTT cytotoxicity assay, 72 h, normal control cells; assay type: cell-based, human; details: Homo sapiens, MRC5, IC50 ± SD, normal fibroblasts
Protocol: (§1) In our study, the human cancer cell lines used were CFAPC- 1 (pancreatic adenocarcinoma); NCI-H460 (large cell lung); HL-60 (acute promyelocytic leukaemia); CACO2 (colorectal adenocarcinoma); HCT-116 (colorectal carcinoma); K562 (chronic myeloid leukaemia); MCF-7 (breast adenocarcinoma); and MRC-5 control cells (normal fibroblasts).
(§2) CFAPC-1, NCI-H460 H1975, HL-60, HCT-116, CACO2, K562, MCF-7, and MCR-5 were grown and maintained in RPMI 1640 and DMEM F12 as appropriate with 10% fetal bovine serum, 100 UI/mL penicillin–streptomycin, and cultured al 37 °C in 5% CO2 humidified atmosphere. Control cultures were treated with dimethyl sulfoxide (1%) alone at the same concentration as in the purine derivatives treatment. Cell viability was determined by trypan blue dye exclusion. Cell numbers were counted in hemocytometer by light microscopy.
(§3) Cytotoxicity assays were performed by using the MTT reduction method as described in the literature. Briefly, cancer cell lines were plated in a flat-bottom 96-wells plate at 1 × 10^4 cells per well density. Then, the cells were incubated with synthetized compounds at different concentrations (from 0.1 to 100 µM) in 200 µL of 10% fetal bovine serum-RPMI or EMEM culture medium at 37 °C for 72 h. Then, 10 µL of MTT was added at a final concentration of 0.5 mg/mL, incubated at 37 °C for 4 h, and then solubilized with 10% sodium dodecyl sulphate (SDS) in 0.1 mM HCl and incubated overnight at 37 °C. Formazan formation was measured at 570 nm in a multi-well reader (StatFax 4200).

K562 = assay: MTT cytotoxicity assay, 72 h; assay type: cell-based, human; details: for IC50: MTT, 72 h, IC50 ± SD; for Selectivity Index (SI) MRC-5/K562: IC50 in MRC-5 / IC50 in K562
Protocol: as §1, §2, §3

NCI-H460 = assay: MTT cytotoxicity assay, 72 h; assay type: cell-based, human; details: for Selectivity Index (SI) MRC-5/NCI-H460: IC50 in MRC-5 / IC50 in NCI-H460
Protocol: as §1, §2, §3

HCT-116 = assay: MTT cytotoxicity assay, 72 h; assay type: cell-based, human; details: Homo sapiens, HCT-116, IC50 ± SD
Protocol: as §1, §2, §3

CFPAC-1 = assay: MTT cytotoxicity assay, 72 h; assay type: cell-based, human; details: Homo sapiens, CFPAC-1, IC50 ± SD
Protocol: as §1, §2, §3

HL-60 = assay: MTT cytotoxicity assay, 72 h; assay type: cell-based, human; details: for Selectivity Index (SI) MRC-5/HL-60: IC50 in MRC-5 / IC50 in HL-60
Protocol: as §1, §2, §3

MCF-7 = assay: MTT cytotoxicity assay, 72 h; assay type: cell-based, human; details: for IC50: Homo sapiens, MCF7, 72 h, MTT, 72 h, IC50 ± SD; for Selectivity Index (SI) MRC-5/MCF-7: IC50 in MRC-5 / IC50 in MCF-7
Protocol: as §1, §2, §3

CACO2 = assay: MTT cytotoxicity assay, 72 h; assay type: cell-based, human; details: Homo sapiens, Caco-2, IC50 ± SD
HL-60 cells = assay: Cell viability by propidium iodide flow cytometry; assay type: cell-based, human; details: HL-60, 50 μM, 24 h, PI staining
Description: Next, in order to determinate the cell death type induced by the most promising compounds, we performed a flow cytometry analysis of cell viability in cell line HL-60 treated with the most promising compounds (selected according to their IC50 values and SI). The HL-60 cancer cells were chosen due to their sensitivity to prepared compounds. […] As a preliminary apoptosis filter, propidium iodide (PI) staining was used through flow cytometry analysis which discriminated a population of viable cells impermeable to PI (PI negative) from necrotic cells PI-permeable (PI positive) and apoptotic cells (the difference of the previous two). The results are shown in Figure 7, illustrating that all purine derivatives tested induced apoptosis on HL-60 cells. Around 40% of apoptotic cells were detected in a culture treated with compounds 7a and 7i, 30% by 7e, 7g, and 7h and 70% by 7d and 7j. […] (For dot plots, see Supplementary Information Figures S1–S3.)
Cell viability was analyzed by flow cytometry as previously described. In this assay, after setting the baseline to exclude cell debris, cells impermeable to propidium iodide (PI negative) are considered as viable. Two populations of PI-permeable dead cells are distinguished based on fluorescence intensity, corresponding to either hypodiploid apoptotic cells or necrotic cells with intact DNA. Here, HL60 cells were incubated with concentrations of 50 µM of each compound for 24 h at 37 °C. Cells were harvested and stained with 10 µg/mL of propidium iodide to determine cell viability. Samples containing roughly 1 × 10^4 cells were evaluated by flow cytometry (FACScanto II; Becton Dickinson, Mountain View, CA) and analyzed using FCS Express v6 software. Three independent biological replicates were performed.

MCF7 cells = assay: Cell cycle distribution of MCF7 cells; assay type: cell-based, human; details: Figure S5
pERK1/2 = assay: Western blotting of pERK1/2 in MCF-7 cells; assay type: cell-based, human; details: 10 µM, 1 h
Protocol: Cell lysates were prepared by harvesting cells in Laemmli sample buffer. Proteins were separated on SDS polyacrylamide gels and electroblotted onto nitrocellulose membranes. After blocking, the membranes were incubated with specific primary antibodies overnight, washed, and then incubated with peroxidase-conjugated secondary antibodies. Finally, peroxidase activity was detected with SuperSignal West Pico reagents (Thermo Scientific, Waltham, MA, USA) using a CCD camera LAS-4000 (Fujifilm). Specific antibodies were purchased from Sigma-Aldrich (anti-α-tubulin, clone DM1A; peroxidase-labeled secondary antibodies) and Cell Signaling (anti-PARP, clone 46D11; anti-ERK1/2; anti-phospho-ERK1/2 T202/Y204).

cancer cell lines = details: cited from earlier work
p53 = assay: p53-dependent transcriptional activity reporter assay (β-galactosidase) in Arn-8 cells; assay type: cell-based, human; details: Arn-8 cells, 24 h incubation, Table S3, control compound
Protocol: Table S3. Results of p53 activity of compounds 4a-u and 7a-j.
Compound fold p53 activity […]
p53-dependent transcriptional activity
To measure p53-dependent transcriptional activity, -galactosidase activity was determined in the human melanoma cell line Arn-8, stably transfected with a p53-responsive reporter construct pRGC foslacZ as described before. After 24 h incubation with the inhibitors, the cells were permeabilized with 0.3% Triton X-100 for 15 min, and then 4-methylumbelliferon-ß-D-galactopyranoside was added as a substrate to a final concentration of 80 µM. […]
fluorescence was measured at 355/460 nm (ex/em) with a Fluoroskan Ascent microplate reader […]
Figure S6. Dose-response effect of roscovitine on p53 activity in ARN8 cells (control experiment).
(1 picture or pasted object on this page, not shown here)

[1] = biological target: Hedgehog (Hh) signaling pathway; design: method as in PMID 24923765; details: cited from earlier work
[2] = Homo sapiens, NCI-H460, 72 h, MTT, 72 h, IC50 ± SD, read-out: IC50 NCI-H460
[3] = Homo sapiens, HL-60, 72 h, MTT, 72 h, IC50 ± SD, read-out: IC50 HL-60
[4] = Homo sapiens, HL-60, -logIC50 in molar concentration, Table S1, read-out: Experimental pIC50 (HL-60) (converted)
[5] = Homo sapiens, NCI-H460, -logIC50 in molar concentration, Table S2, read-out: Experimental pIC50 (NCI-H460) (converted)
[6] = MTT, 72 h, IC50 ± SD, read-out: IC50 NCI-H460

SMILES | melting point [°C] | IC50 (MRC-5) [µM] | IC50 (K562; Homo sapiens, K562, 72 h) [µM] | IC50 (NCI-H460; [2]) [µM] | IC50 (HCT-116) [µM] | IC50 (CFPAC-1) [µM] | IC50 (HL-60; [3]) [µM] | IC50 (MCF-7) [µM] | IC50 (CACO2) [µM] | IC50 (HL-60; [4]) [µM] | Selectivity Index (SI) MRC-5/HL-60 (HL-60) | other results
Clc1ccc(N2CCN(c3nc(Cl)nc4c3ncn4C3CCCC3)CC2)cc1 [7g, 2-Chloro-6-(4-(4-chlorophenyl)piperazin-1-yl)-9-cyclopentyl-9H-purine] | – | 2.54 ± 0.17 | 0.71 ± 0.07 | 2.2 | > 50 | > 100 | 0.3 ± 0.06 | 0.97 ± 0.07 | > 100 | 0.3 | 8.5 | apoptotic cells (HL-60 cells): ~30%; population of MCF7 cells in the G1-phase (MCF7 cells): slightly increased; Selectivity Index (SI) MRC-5/K562 (K562): 3.6; IC50 (NCI-H460; [5]): 2.21 µM; Selectivity Index (SI) MRC-5/NCI-H460 (NCI-H460): 1.1; IC50 (NCI-H460; [6]): 2.21 ± 0.03 µM; Selectivity Index (SI) MRC-5/MCF-7 (MCF-7): 2.6; level of mitogenic transducer pERK1/2 (pERK1/2): potently reduced
COc1ccc(N2CCN(c3nc(Cl)nc4c3ncn4C3CCCC3)CC2)cc1 [7j, 2-Chloro-9-cyclopentyl-6-(4-(4-methoxyphenyl)piperazin-1-yl)-9H-purine] | – | 30 ± 1 | 3.38 ± 0.71 | < 10 | > 50 | > 100 | 1.5 ± 0.07 | 6.61 ± 0.67 | > 100 | 1.5 | 20.0 | apoptotic cells (HL-60 cells): ~70%; Selectivity Index (SI) MRC-5/K562 (K562): 8.8; IC50 (NCI-H460; [5]): 7.08 µM; Selectivity Index (SI) MRC-5/NCI-H460 (NCI-H460): 4.2; IC50 (NCI-H460; [6]): 7.08 ± 0.22 µM; Selectivity Index (SI) MRC-5/MCF-7 (MCF-7): 4.5
OC[C@H]1O[C@@H](n2cnc3c(N4CCN(c5ccc(C(F)(F)F)cc5)CC4)nc(Cl)nc32)[C@H](O)[C@@H]1O [II] | – | – | – | – | – | – | – | – | – | – | – | IC50 on some cancer cell lines (cancer cell lines): sub-micromolar
FC(F)(F)c1ccc(N2CCN(c3ncnc4c3ncn4C3CCCC3)CC2)cc1 [I] | – | – | – | – | – | – | – | – | – | – | – | IC50 on some cancer cell lines (cancer cell lines): sub-micromolar
CC[C@H](CO)Nc1nc(NCc2ccccc2)c2ncn(C(C)C)c2n1 [Roscovitine, reference compound] | – | – | – | – | – | – | – | – | – | – | – | fold p53 activity (p53): 33.9
CCNCc1ccc(C)c(NC(=O)c2ccc(Nc3nc(-c4ccc(OC(F)(F)F)cc4)c4ncn(C)c4n3)cc2)c1 [V] | – | – | – | – | – | – | – | – | – | – | – | IC50 in Gli-luciferase reporter assay [1]: nanomolar scale

Second part, led by results:

melting point [°C] | SMILES | IC50 (MRC-5) [µM] | IC50 (K562; Homo sapiens, K562, 72 h) [µM] | IC50 (NCI-H460; [2]) [µM] | IC50 (HCT-116) [µM] | IC50 (CFPAC-1) [µM] | IC50 (HL-60; [3]) [µM] | IC50 (MCF-7) [µM] | IC50 (CACO2) [µM] | IC50 (HL-60; [4]) [µM] | Selectivity Index (SI) MRC-5/HL-60 (HL-60) | other results
85 to 87 | CCn1cnc2c(-c3ccc(OC(F)(F)F)cc3)nc(NC3CCCC3)nc21 [4a, N-cyclopentyl-9-ethyl-6-(4-(trifluoromethoxy)phenyl)-9H-purin-2-amine] | > 100 | > 25 | > 100 | > 50 | > 100 | 38 ± 3 | > 25 | > 100 | – | – | –
72 to 74 | CCCCn1cnc2c(-c3ccc(OC(F)(F)F)cc3)nc(NC3CCCCCC3)nc21 [4i, 9-Butyl-N-cycloheptyl-6-(4-(trifluoromethoxy)phenyl)-9H-purin-2-amine] | > 100 | > 25 | > 100 | > 50 | > 100 | 19 ± 3.9 | > 25 | > 100 | 19 | – | –
50 to 53 | CCCCCn1cnc2c(-c3ccc(OC(F)(F)F)cc3)nc(NC3CCCCCC3)nc21 [4j, N-cycloheptyl-9-pentyl-6-(4-(trifluoromethoxy)phenyl)-9H-purin-2-amine] | > 100 | > 25 | > 100 | > 50 | > 100 | < 6 | > 25 | > 100 | 6 | > 16.7 | IC50 (HL-60; MTT, 72 h, IC50 ± SD, read-out: IC50 HL-60): 6 ± 0.8 µM
68 to 70 | CCCCCCn1cnc2c(-c3ccc(OC(F)(F)F)cc3)nc(NC3CCCCCC3)nc21 [4k, N-cycloheptyl-9-Hexyl-6-(4-(trifluoromethoxy)phenyl)-9H-purin-2-amine] | > 100 | > 25 | > 100 | > 50 | > 100 | 12 ± 0.6 | > 25 | > 100 | 12 | – | –
150 to 153 | CCCCCn1cnc2c(-c3ccc(OC(F)(F)F)cc3)nc(N3CCC(c4ccccc4)CC3)nc21 [4t, 9-Pentyl-2-(4-phenylpiperidin-1-yl)-6-(4-(trifluoromethoxy)phenyl)-9H-purine] | > 100 | > 25 | > 100 | > 50 | > 100 | > 50 | > 25 | > 100 | – | – | –
160 to 162 | FC(F)(F)c1ccc(N2CCN(c3nc(Cl)nc4c3ncn4C3CCCC3)CC2)nc1 [7c, 2-Chloro-9-cyclopentyl-6-(4-(5-(trifluoromethyl)pyridin-2-yl)piperazin-1-yl)-9H-purine] | 56 ± 1 | 0.4 to 1.5 | 4.8 | > 50 | > 100 | 17 ± 2.3 | 0.52 ± 0.05 | > 100 | 17 | 3.3 | Selectivity Index (SI) MRC-5/K562 (K562): 143.6; IC50 (K562): 0.39 ± 0.03 µM; IC50 (NCI-H460; [5]): 4.79 µM; Selectivity Index (SI) MRC-5/NCI-H460 (NCI-H460): 11.7; IC50 (NCI-H460; [6]): 4.79 ± 0.07 µM; Selectivity Index (SI) MRC-5/MCF-7 (MCF-7): 107.7
